Experimental data as given in patent publication US8232289B2, “Spiropiperidine compounds as ORL-1 receptor antagonists” (Eli Lilly and Company, priority 2009, dated 2012).
Where two headings read alike, the source gives them in different places.

How the values were obtained:
human ORL1 receptors = molecular target: T1, human ORL1 receptors (Homo sapiens, UniProt P41146); assay: [3H]-OFQ/nociceptin receptor binding assay
T1 construct: expressed in transfected cells; host or cells: CHO cells (membranes)
T1 sequence (P41146 whole entry): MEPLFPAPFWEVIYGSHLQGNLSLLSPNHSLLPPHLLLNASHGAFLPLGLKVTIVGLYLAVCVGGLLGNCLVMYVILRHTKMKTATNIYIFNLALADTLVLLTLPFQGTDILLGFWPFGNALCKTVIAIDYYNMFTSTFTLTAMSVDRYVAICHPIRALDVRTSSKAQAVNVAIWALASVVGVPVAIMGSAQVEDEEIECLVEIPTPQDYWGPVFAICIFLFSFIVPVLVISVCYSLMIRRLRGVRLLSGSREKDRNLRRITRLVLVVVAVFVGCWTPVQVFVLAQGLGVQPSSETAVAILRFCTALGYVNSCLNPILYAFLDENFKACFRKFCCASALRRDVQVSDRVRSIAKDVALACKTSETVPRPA
Protocol: Radioligand binding assays are commonly used to determine the affinity (Ki) or potency of a compound to bind to a particular receptor or target protein. A filtration-based [3H]-OFQ/nociceptin receptor binding assay is developed based on previous assay formats (Ardati A, Henningsen R A, Higelin J, Reinscheid R K, Civelli O, Monsma F J Jr. Mol. Pharmacol. 1997 May; 51(5):816-24.) with minor modifications. [3H]-OFQ/nociceptin binding assays are carried out in deep-well 96-well plates. [^3H]OFQ (final assay concentration 0.2 nM) competition studies are carried out with 5-10 μg of membrane protein (isolated from Chinese hamster ovary cells (CHO cells) expressing cloned human ORL1 receptors) in a final assay volume of 0.5 mL of buffer containing 20 mM HEPES, pH 7.4, 5 mM MgCl2, 1 mM EGTA, 100 mM NaCl, 0.1% bovine serum albumin. Samples are incubated for 60 min. at room temperature, which is found to be optimal for competition assays. The assays are terminated by filtration through glass fiber filters (Wallac filtermat A) [pretreated with 0.3% polyethylenimine (Sigma) for 1 hr] on a Tometc cell harvester, and the filters are washed three times with 5 mL of ice-cold 50 mM Tris.HCl, pH 7.4. Filtermats are then dried and imbedded with Meltilex scintillant A and the radioactivity counted in a Wallac Microbeta scintillation counter. Specific binding is determined by displacement with 100 nM unlabeled nociceptin. Curves are plotted as the percent of specific binding and IC50 values are determined using a sigmoidal dose response curve with variable slope. Ki values are calculated from the IC50 by the equation of Cheng and Prusoff (Cheng, Y. C., and Prusoff, W. H., Biochem. Pharmacol. 22, 3099-3108 (1973)) where Ki=IC50×(1+D×Kd^−1)^−1.

[1] = molecular target: T2, nociceptin/ORL1 receptors (Rattus norvegicus, UniProt P35370); assay: In vivo receptor occupancy (LC/MS/MS, RO Tracer) in hypothalamus; parameters: species or system rats; settings: for receptor occupancy at 3 mg/kg: rat hypothalamus, 3 mg/kg oral dose, after 6 hr.
T2 construct: from tissue; host or cells: rat hypothalamus (in vivo)
T2 sequence (P35370 whole entry): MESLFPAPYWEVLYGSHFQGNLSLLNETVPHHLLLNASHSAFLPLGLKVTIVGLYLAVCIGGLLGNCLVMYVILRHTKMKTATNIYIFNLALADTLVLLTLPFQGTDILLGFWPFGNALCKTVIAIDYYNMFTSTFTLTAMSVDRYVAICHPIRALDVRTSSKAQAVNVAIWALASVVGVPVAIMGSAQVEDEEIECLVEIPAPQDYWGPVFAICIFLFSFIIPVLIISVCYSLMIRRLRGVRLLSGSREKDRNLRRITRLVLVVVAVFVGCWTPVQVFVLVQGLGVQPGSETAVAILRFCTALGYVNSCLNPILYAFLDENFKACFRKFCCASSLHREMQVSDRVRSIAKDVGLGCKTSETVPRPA
Protocol: Receptor occupancy (RO) using LC/MS/MS has been established as a way to measure central target engagement of putative ORL-1 antagonist in vivo. Nociceptin/ORL1 receptor occupancy (RO) is measured in the hypothalamus, a structure which contains a high density of nociceptin/ORL1 binding sites that are inside the blood brain barrier, using a novel proprietary nociceptin/ORL1 antagonist RO tracer, 2-[(2-fluorophenyl)methyl]-3-(2-fluorospiro[4,5-dihydrothieno[2,3-c]pyran-7,4′-piperidine]-1′-yl)-N,N-dimethyl-propanamide, (RO Tracer). These measurements are made without the need for a radiolabeled tracer as previously published for other receptors with modifications (Chemet E, Martin L J, Li D, Need A B, Barth V N, Rash K S, Phebus L A. Use of LC/MS to assess brain tracer distribution in preclinical, in vivo receptor occupancy studies: dopamine D2, serotonin 2A and NK-1 receptors as examples. Life Sci. 78(4):340-6, 2005.). A positive correlation has been established between central nociceptin/ORL1 RO and efficacy in the modulation of the feeding behavior and forced swim test in rodents. Central nociceptin/ORL1 RO is measured at 6 or 24 hours following oral administration of the test compound to rats. Male Sprague-Dawley rats (Harlan Sprague-Dawley, Indianapolis, Ind.) are treated orally with a test compound, or vehicle (20% Captisol, 25 mM phosphate buffer, pH 2.0). At 6 or 24 hours following administration of test compound/vehicle, all animals are administered an intravenous, 3 ng/kg dose of RO Tracer. It is at the time of RO Tracer administration that RO is considered to be measured. Forty minutes after RO Tracer administration, rats are sacrificed by cervical dislocation and the hypothalamus is removed. The level of RO Tracer is measured in each tissue sample.
The centrally active literature reference standard (−)-cis-1-methyl-7-[[4-(2,6-dichlorophenyl)piperidin-1-yl]methyl]-6,7,8,9-tetrahydro-5H-benzocyclohepten-5-ol (SB612111, see Magdalena and Heisler, supra), a potent nociceptin/ORL1 receptor selective antagonist, is used as a positive control to establish the RO Tracer level associated with 100% nociceptin/ORL1 RO. […]
Hypothalamic samples are homogenized in 4 volumes (w/v) of acetonitrile containing 0.1% formic acid and centrifuged at 14,000 RPM for 16 min. […] Detection of RO Tracer is accomplished by monitoring the precursor to product ion transition with a mass to charge ratio (m/z) of 435 to 239, with levels quantified by comparison to standards prepared in brain tissue homogenates. Zero percent RO is calculated as the level of RO Tracer in the hypothalamus of vehicle-pretreated animals, which represents the sum of nonspecific and specific binding (all receptors available to the tracer). […]

[2] = tested on: wild type and ORL knockout mice; assay: Blockade of fasting-induced hyperphagia in mice; type: in vivo
Excerpt: Blockade of fasting-induced hyperphagia in rodents is an accepted model for hyperphagic eating disorders. […] Mice are individually housed a minimum of 3 days prior to the onset of testing to eliminate any effects of stress due to the change from group to individual housing. Three mice/genotype are randomly assigned to each treatment group on the test day. Pre-fast body weight measurements are taken, and food is then removed from cages overnight. Mice are fasted for approximately 15 hr. The next morning, the mice are given one of three doses of drug or vehicle via oral gavage 30 min. prior to gaining access to food. Drugs are dissolved in 20% Captisol dissolved in 25 mM phosphate buffer, pH 2.0. Measurements of body weight are taken immediately prior to drug treatment or 24 hr. after access to food is restored. […] Measurements of food intake are recorded 1 hr following access to food, as indicated, by weight of food remaining at 1 hr. It should be noted that food intake measured is during the light phase, a time during which mice are typically at rest and not normally eating. Following initial testing, mice are rested for 1 week with access to unlimited chow.

[3] = wild type mice, oral gavage 30 min. prior to food, food intake at 1 hr

Ki (human ORL1 receptors; [3H]OFQ 0.2 nM, CHO cell membranes, read-out: Ki ORL-1) [nM] | in vivo plasma concentration necessary to produce 80 percent RO (EC80 RO) ([1]; nociceptin/ORL1 receptors in the CNS) | Structure (SMILES) | Ki (human ORL1 receptors) [nM] | receptor occupancy at 3 mg/kg [1] [%] | effect on fasting-induced hyperphagia ([2]; ORL-1 knockout mouse strain) | effect on fasting-induced hyperphagia [2, 3]
 |  | Cc1nn(-c2ncccc2Cn2cccn2)cc1CN1CCC2(CC1)OCC(F)(F)c1cc(Cl)sc12.O=C(O)C(O)C(O)C(=O)O [Example 23, 2-Chloro-4,4-difluoro-1′-[[3-methyl-1-[3-(pyrazol-1-ylmethyl)-2-pyridyl]pyrazol-4-yl]methyl]spiro[5H-thieno[2,3-c]pyran-7,4′-piperidine] (L)-Tartrate] | 0.79 | 80 | not observed | substantially block fasting-induced hyperphagia
 |  | O=C(O)C(O)C(O)C(=O)O.OCc1nn(-c2ncccc2F)cc1CN1CCC2(CC1)OCC(F)(F)c1cc(Cl)sc12 [Example 53, [4-[(2-Chloro-4,4-difluoro-spiro[5H-thieno[2,3-c]pyran-7,4′-piperidine]-1′-yl)methyl]-1-(3-fluoro-2-pyridyl)pyrazol-3-yl]methanol (L)-Tartrate] | 0.45 | 83 | not observed | substantially block fasting-induced hyperphagia
0.18 | approximately 41 nM | Cc1nn(-c2ncccc2CO)cc1CN1CCC2(CC1)OCC(F)(F)c1cc(Cl)sc12 [Example 62, [2-[4-[(2-Chloro-4,4-difluoro-spiro[5H-thieno[2,3-c]pyran-7,4′-piperidine]-1′-yl)methyl]-3-methyl-pyrazol-1-yl]-3-pyridyl]methanol] |  | 104 | not observed | substantially block fasting-induced hyperphagia
